# In patent publication US5614562A, “Method of treating drug resistant tumor cells using organoselenones” (The University of Sourthern California, priority 1992, dated 1997):
# Like-named read-outs stand apart in the source and are kept apart here.
# Assays:
# L1210/0 [1] = assay: Cytotoxicity, 48-hr exposure of L1210/0 leukemia cells; format: cell-based, murine; details: 48-hr exposure, read-out: IC50 L1210/0
# Text: (§1) Murine L1210 leukemia cells sensitive (L1210/0) and resistant (L1210/L-PAM)to L-phenylalanine mustard were obtained that are adaptable to either in vitro or in vivo passage.
# (§2) Broad resistance of the L1210/L-PAM cell line is shown by the approximately 4-fold and 9-fold increases in IC50, compared to L1210/0, for L-PAM and mechlorethamine, respectively (Comparative Examples 3 and 4). […].
# L1210/L-PAM [2] = assay: Cytotoxicity, 48-hr exposure of L-PAM resistant L1210/L-PAM leukemia cells; format: cell-based, murine; details: 48-hr exposure; for IC50: read-out: IC50 L1210/L-PAM
# Text: as §1, §2
# [3] = methanol, 35° C.; cited from earlier work
# HCT/VP35 = assay: In vitro cytotoxicity, VP16 resistant HCT/VP35 human colon carcinoma; format: cell-based; details: for IC50: Homo sapiens, HCT/VP35, VP16 resistant, data provided by Bristol-Myers Laboratories; for ratio of IC50 values HCT/VP35 vs HCT116: IC50 divided by IC50 for HCT116; for fold increase in IC50, HCT/VP35: vs HCT116
# Text: | HCT/VP35 human colon, VP16 resistant
# HCT/VM46 = assay: In vitro cytotoxicity, VM26 resistant HCT/VM46 human colon carcinoma; format: cell-based; details: for IC50: Homo sapiens, VM26 resistant, data provided by Bristol-Myers Laboratories; for ratio of IC50 values HCT/VM46 vs HCT116: IC50 divided by IC50 for HCT116; for fold increase in IC50, HCT/VM46: vs HCT116
# Text: | HCT/VM46 human colon, VM26 resistant
# HCT116 = assay: In vitro cytotoxicity, HCT116 human colon carcinoma; format: cell-based; details: Homo sapiens, HCT-116; data provided by Bristol-Myers Laboratories
# Text: ^b Cell lines: HCT116 human colon (sensitive to VP16 and VM26)
# [4] = test system: HT29 human colon carcinoma cells; assay: Growth inhibition cytotoxicity against HT29 human colon carcinoma cells (MER(+)); format: cell-based; details: HT-29
# Text: (Example 15) These cells are very high in the alkyltransferase enzyme for repair of DNA guanine O6-alkyl products, and therefore are considered strongly MER(+) in phenotype. Levels of this enzyme in HT29 cells have averaged about 0.5 pmol/mg protein in recent studies (K. Chan, et al., unpublished). […] Thus, the lack of cross-resistance to ethyleneimines by the present invention of 2-chloroethyl aryl selenones is not associated with resistence mediated by the alkyltransferase repair enzyme.
# L1210/0 [5] = details: cited from earlier work
# L1210/L-PAM [6] = details: L1210/L-PAM line; cited from earlier work
compound,measurement,setting,value
CS(=O)(=O)OCCC[Se]c1ccccc1 [PhSeCH2 CH2 CH2 OMs],IC50,"L1210/0 [1]; Mus musculus, L1210/0",52 µM
same,Ratio of IC50s (L1210/L-PAM vs L1210/0),L1210/L-PAM [2],1.9
same,IC50,"L1210/L-PAM [2]; Mus musculus, L1210/LPAM",100 µM
C[Se](=O)(=O)c1ccccc1 [PhSeO2 CH3],reactivity in methylation of dimethylsulfide,[3],three times as reactive as methyl iodide
"COc1cc([C@@H]2c3cc4c(cc3[C@@H](O[C@@H]3O[C@@H]5CO[C@@H](c6cccs6)O[C@H]5[C@H](O)[C@H]3O)[C@H]3COC(=O)[C@H]23)OCO4)cc(OC)c1O [VM-26 (Teniposide), Teniposide]",IC50,HCT/VP35,0.53 µg/mL
same,ratio of IC50 values HCT/VP35 vs HCT116,HCT/VP35,15.1
same,"fold increase in IC50, HCT/VP35",HCT/VP35,15.1 fold
same,IC50,HCT/VM46,0.17 µg/mL
same,ratio of IC50 values HCT/VM46 vs HCT116,HCT/VM46,4.9
same,"fold increase in IC50, HCT/VM46",HCT/VM46,4.9 fold
same,IC50,HCT116,0.035 µg/mL
"COc1cc([C@@H]2c3cc4c(cc3[C@@H](O[C@@H]3O[C@@H]5CO[C@@H](C)O[C@H]5[C@H](O)[C@H]3O)[C@H]3COC(=O)[C@H]23)OCO4)cc(OC)c1O [VP-16 (Etoposide), Etoposide]",IC50,HCT/VP35,4.62 µg/mL
same,ratio of IC50 values HCT/VP35 vs HCT116,HCT/VP35,10.0
same,"fold increase in IC50, HCT/VP35",HCT/VP35,10.0 fold
same,IC50,HCT/VM46,1.48 µg/mL
same,ratio of IC50 values HCT/VM46 vs HCT116,HCT/VM46,3.2
same,"fold increase in IC50, HCT/VM46",HCT/VM46,3.2 fold
same,IC50,HCT116,0.46 µg/mL
"NC(=O)N(CCCl)N=O [chloroethylnitrosourea (CNU), chloroethylnitrosourea, reference compound]",IC50,[4],250 µM
O=P1(N(CCCl)CCCl)NCCCO1 (centres unmarked) [cyclophosphamide],sensitivity of parent L1210/0 line,L1210/0 [5],sensitive
same,in vivo resistance (log cell kill differential),L1210/L-PAM [6],> 2 log
S=P(N1CC1)(N1CC1)N1CC1 [thioTEPA],sensitivity of parent L1210/0 line,L1210/0 [5],sensitive
same,in vivo resistance (log cell kill differential),L1210/L-PAM [6],4 log
(CH3)2 NCSeCH2 CH2 Cl,IC50,L1210/0 [1],18 µM
same,Ratio of IC50s (L1210/L-PAM vs L1210/0),L1210/L-PAM [2],1.7
same,IC50,L1210/L-PAM [2],30 µM
